Read-outs that look alike come from different tables or passages of the source. Where a SMILES comes first, the peptide text is derived from it. The star is where a group is joined. Cbz = O=C(OCc1ccccc1)*; CH2F = FC*
Assays:
[1] = test system: Human Jurkat cells; assay: Velcade-induced apoptosis of Jurkat cells, CellTiter-Glo viability; format: cell-based; conditions: 24 hours
Description: (§1) Human Jurkat cells were seeded in 96-well plates (20000 cells per well). Different concentrations of the compounds were added one hour prior to Velcade treatment, followed by the addition of 50 nM Velcade. After incubation for 24 hours, cell viability was measured by CellTiter-Glo Luminescent Cell Viability Assay.
(§2) The rates of cell death were measured in triplicate or quadruplicate in a 96-well or 384-well plate by using SYTOX Green Nucleic Acid Stain (Invitrogen) or ToxiLight Non-destructive Cytotoxicity BioAssay Kit (Lonza). The intensity of luminescence was determined in an EnSpire Multimode Plate Reader (PerkinElmer). Cytotoxicity is expressed as percentages of cell death per well after deducting the background signal in non-induced cells and compared to that of the maximal cell death with 100% Lysis Reagent. The rates of cell viability were determined by using CellTiter-Glo Luminescent Cell Viability Assay (Promega) following the manufacturer's protocol and the results are expressed as percentages of luminescence intensity per well after deducting the background signal in blank well and compared to that of the viability in the non-treated wells. Concentration of drugs used for inducing or inhibiting cell death, mTNFα: 1 ng/ml; 5Z-7-Oxozeaenol: 0.5 μM; Velcade: 50 nM; Apt-1/ICCB-19/ICCB-19i/Nec-1s: 10 μM.

[2] = test system: Murine RGC5(661W) cells; assay: RIPK1-dependent apoptosis (RDA) of RGC5 cells induced by TNFα plus 5Z-7-Oxozeaenol; format: cell-based; conditions: Mus musculus, 21 hours
Description: as §1, with “Murine RGC5(661W)” for “Human Jurkat”, “(4000” for “(20000”, “TNFα” for “Velcade”, “0.5 ng/ml TNFα plus 0.5 μM 5Z-7-Oxozeaenol to induce RIPK1-dependent apoptosis (RDA).” for “50 nM Velcade.”, “21” for “24”

[3] = test system: cleaved-caspase 3 (CC3) in MEF cells; assay: Cleaved caspase 3 immunoblot in MEF cells treated with 5z-7-oxozeaenol and TNFα (FIG. 22); format: cell-based, mouse; conditions: 10 uM; 2 h 0.5 uM 5z-7-oxozeaenol and 1 ng/mL TNFα
Description: (§3) Specifically, wild-type MEF cells were pretreated for 1 h with 10 uM of the specified compounds, followed by 2 h treatment with 0.5 uM 5z-7-oxozeaenol and 1 ng/mL TNFα. Cell lysates were prepared and immunoblotted for cleaved-caspase 3 (CC3). Wild-type Jurkat cells were also pretreated for 1 h with 10 uM of the specified compounds, followed by 12 h treatment with 50 nM Velcade. Cell lysates were prepared and immunoblotted for cleaved-caspase 3 (CC3).

[4] = test system: MEF cells; assay: Autophagy by LC3II western blotting in MEF cells (FIG. 21); format: cell-based, mouse; conditions: 10 uM, 1 h pretreatment, 6 h vehicle or 40 mM NH4Cl
Description: (§4) Wild-type H4 and MEF cells that were pretreated for 1 h with 10 uM of the specified compounds, followed by 6 h treatment with either vehicle or 40 mM NH4Cl. Cell lysates were prepared and immunoblotted for LC3-I and LC3-II. Autophagy was determined by LC3II levels using western blotting.

[5] = test system: cleaved caspase-3 in Jurkat cells; assay: Cleaved caspase-3 immunoblot in Velcade-treated cells; format: cell-based, human; conditions: 10 uM; 12 h 50 nM Velcade
Description: The levels of cleaved caspase-3 were determined by immunoblotting.
as §3

[6] = test system: H4 cells; assay: Autophagy by LC3II western blotting in H4 cells (FIG. 21); format: cell-based; conditions: 10 uM, 1 h pretreatment, 6 h vehicle or 40 mM NH4Cl
Description: as §4

[7] = test system: MEFs; assay: RDA in MEFs induced by mTNFα and 5Z-7-Oxozeaenol, cell survival; format: cell-based, mouse; conditions: 10 μM
Description: as §2

[8] = test system: H4-GFP-LC3 cells; assay: Autophagy induction, GFP-LC3 puncta and LC3II immunoblotting; format: cell-based; conditions: 10 μM, 6 h (zVAD.fmk 20 μM)
Description: Mean ±s.e.m. (n=5). One-way ANOVA, post hoc Dunnett's test.
Autophagy was determined by LC3II levels using immunoblotting. SE=shorter exposure, LE=longer exposure.
Autophagy was measured by LC3II induction and p62 reduction by immunoblotting. The levels of LC3II in cells treated with both Apt-1 and NH4Cl, the latter of which inhibits lysosome, were higher than that treated with either Apt-1 or NH4Cl alone. Thus, ICCB-19/Apt-1, but not ICCB-19i, induce autophagic flux. Mean ±s.e.m. from technical triplicates (n=3), representative of 3 independent experiments. Two-tailed t-test. **P=0.0037.
Levels of LC3II determined by immunoblotting.
Cells were seeded at 2.5×10^4 cells per well on poly-L-lysine coated glass cover slips and transfected as described. Cells were fixed in 4% paraformaldehyde, followed by permeabilization with 0.1% Triton X-100. Nuclei were stained using DAPI (Sigma). Cells expressing GFP or RFP-fusion proteins were imaged with an Olympus Fluoview FV1000 confocal microscope (Olympus) using a 40×objective. For GFP-LC3 and DsRed-FYVE puncta quantification, the average spot intensity in 1000 cells from each indicated sample was determined. Images were processed using ImageJ and Photoshop CC. Concentration of compounds used to induce or block autophagy: 10 μM (Apt-1, ICCB-19, ICCB-19i or Spautin-1), for 6 h or as indicated.

[9] = Table 1, 50 nM Velcade, read-out: Apoptosis of Jurkat cells induced by Velcade (IC50 μM)
[10] = Table 2, 0.5 ng/ml TNFα plus 0.5 μM 5Z-7-Oxozeaenol, read-out: RGC5 T/5z7 IC50
[11] = Table 3, 50 nM Velcade, read-out: Jurkat Velcade IC50/μM
[12] = Table 3, 0.5 ng/ml TNFα plus 0.5 μM 5Z-7-Oxozeaenol, read-out: RGC5 T/5z7 IC50/μM

IC50 [1, 11]	IC50 [2, 12]	SMILES	also measured
0.953 µM	2.93 µM	CC(SC1=NCCN1C)C(=O)N(C)C1CCCCCC1 (stereo not drawn) [Compound 28]	
3.87 µM	1.83 µM	CC(C)C(SC1=NCCN1C)C(=O)NC1CCCCCC1 (stereo not drawn) [Compound 29]	
1.04 µM	1.67 µM	CN1CCN=C1SC(C)(C)C(=O)NC1CCCCCC1 [Compound 33]	
0.882 µM	2.21 µM	CN1CCN=C1SC(C(=O)NC1CCCCCC1)c1ccccc1Cl (stereo not drawn) [Compound 34]	
2.14 µM	1.6 µM	CN1CCN=C1SC(C(=O)NC1CCCCCC1)c1ccc(Cl)cc1 (stereo not drawn) [Compound 35]	
1.07 µM	1.79 µM	CCN1CCN=C1SC(C(=O)NC1CCCCCC1)c1ccccc1 (stereo not drawn) [Compound 36]	
1.17 µM	3.05 µM	O=C(CSC1=NCCN1)NC(c1ccccc1)c1ccccc1 [Compound 37]	
3.23 µM	5.87 µM	Fc1ccccc1CSC1=NCCN1 [Compound 40]	cleaved caspase 3 in MEF cells [3]: block cleaved caspase 3; autophagy (LC3II levels) in MEF cells [4]: induce autophagy; cleaved caspase 3 in Jurkat cells [5]: block cleaved caspase 3; autophagy (LC3II levels) in H4 cells [6]: induce autophagy
1.15 µM	1.57 µM	CN1CCN=C1SC(C(=O)NC(c1ccccc1)c1ccccc1)c1ccccc1 (stereo not drawn) [Compound 42]	

More lines, now with the values behind:

SMILES	IC50 [1, 11]	IC50 [2, 12]	also measured
N=C(N)SCc1ccccc1F [Compound 1]			IC50 [1, 9]: 6.2 µM
COc1ccc(CSC(=N)N)cc1[N+](=O)[O-] [Compound 2]			IC50 [1, 9]: 4.4 µM
Cc1ccccc1NC(=O)CSC1=NCCN1 [Compound 3]			IC50 [1, 9]: 32.1 µM
Cc1ccc(NC(=O)CSC2=NCCN2)cc1 [Compound 4]			IC50 [1, 9]: 10.5 µM
COc1ccc(NC(=O)CSC2=NCCN2)cc1 [Compound 5]			IC50 [1, 9]: 46.4 µM
N#Cc1ccc(CSC(=N)N)cc1 [Compound 7]			IC50 [1, 9]: 6.84 µM
FC(F)=C(F)CCSC1=NCCN1 [Compound 8]			IC50 [1, 9]: 17.3 µM
O=C(CSC1=NCCN1)NC1CCCCC1 [Compound 12]			IC50 [2, 10]: 2.36 µM
O=C(CSC1=NCCN1)NC1CCCC1 [Compound 13]			IC50 [2, 10]: 3.42 µM
O=C(CSC1=NCCN1)NC1CCC1 [Compound 14]			IC50 [2, 10]: 4.51 µM
CN(C(=O)CSC1=NCCN1)C1CCCCCC1 [Compound 16]	1.46 µM	8.84 µM	
CC(SC1=NCCN1)C(=O)NC1CCCCCC1 (stereo not drawn) [Compound 18]	3.66 µM	4.02 µM	
CN1CCN=C1SCC(=O)NC1CCCCCC1 [Compound 19]	1.8 µM	3.33 µM	
CC(SC1=NCCN1)C(=O)N(C)C1CCCCCC1 (stereo not drawn) [Compound 25]	1.22 µM	2.87 µM	
CN1CCN=C1SCC(=O)N(C)C1CCCCCC1 [Compound 26]	1.99 µM	3.08 µM	
CC(SC1=NCCN1C)C(=O)NC1CCCCCC1 (stereo not drawn) [Compound 27]	3.06 µM	2.81 µM	
C/N=C(\NC)NCC(=O)N1CCCC1 [Compound 38]			cleaved caspase 3 in MEF cells [3]: block cleaved caspase 3; autophagy (LC3II levels) in MEF cells [4]: induce autophagy; cleaved caspase 3 in Jurkat cells [5]: block cleaved caspase 3; autophagy (LC3II levels) in H4 cells [6]: induce autophagy
O=C(CSC1=NCCN1)N1CCc2ccccc21 [ICCB-17]			IC50 [1, 9]: 13.4 µM
CN1C(=O)NC(Cc2c[nH]c3c(Cl)cccc23)C1=O (stereo not drawn) [Nec-1s, reference compound]			protection against RDA models [7]: protected against multiple RDA models
COC(=O)C[C@H](NC(=O)[C@H](C)NC(=O)[C@@H](NC(=O)OCc1ccccc1)C(C)C)C(=O)CF [zVAD.fmk, reference compound] (Cbz-Val-Ala-Asp(OMe)-CH2F)			induction of autophagy [8]: no effect on autophagy

— patent US20230219898A1, “COMPOUNDS AND METHODS FOR BLOCKING APOPTOSIS AND INDUCING AUTOPHAGY” (President and Fellows of Harvard College, priority 2020, published 2023)
